Source: paper PMC5218480 (PLoS ONE, 2017)

Test system: MV-4-11 cells
Test: Gene expression microarray analysis (Affymetrix PrimeView) and GSEA
Type: cell-based, human
Details: ProbeSet 11717523_x_at; LIST B

Nc1ccc(-c2cccs2)cc1NC(=O)c1ccc2c(c1)cc(C1CC1)n2CCN1CCOCC1 [ACY-1035]
RFU, TMEM50B: 85.32 RFU
